Test results taken from ChEMBL document CHEMBL5303573, “Mapping human microbiome drug metabolism by gut bacteria and their genes” (Nature, 2019).

Experiments:
[1] = The drug is tested on Bifidobacterium breve strain: DSM20213 for biotransformation. The drug concentrations were measured before and after a 12-h incubation by liquid-chromatography-coupled mass spectrometry (LC–MS); settings: 2 µM
[2] = The drug is tested on Collinsella aerofaciens strain: ATCC25986 for biotransformation. The drug concentrations were measured before and after a 12-h incubation by liquid-chromatography-coupled mass spectrometry (LC–MS); settings: 2 µM
[3] = The drug is tested on Alistipes indistinctus strain: DSM22520 for biotransformation. The drug concentrations were measured before and after a 12-h incubation by liquid-chromatography-coupled mass spectrometry (LC–MS); settings: 2 µM
[4] = The drug is tested on Bacteroides cellulosilyticus strain: DSM14838 for biotransformation. The drug concentrations were measured before and after a 12-h incubation by liquid-chromatography-coupled mass spectrometry (LC–MS); settings: 2 µM
[5] = The drug is tested on Bacteroides fragilis strain: HMW610 for biotransformation. The drug concentrations were measured before and after a 12-h incubation by liquid-chromatography-coupled mass spectrometry (LC–MS); settings: 2 µM
[6] = The drug is tested on Anaerotruncus colihominis strain: DSM17241 for biotransformation. The drug concentrations were measured before and after a 12-h incubation by liquid-chromatography-coupled mass spectrometry (LC–MS); settings: 2 µM
[7] = The drug is tested on Clostridium scindens strain: ATCC35704 for biotransformation. The drug concentrations were measured before and after a 12-h incubation by liquid-chromatography-coupled mass spectrometry (LC–MS); settings: 2 µM
[8] = The drug is tested on Clostridium sporogenes strain: ATCC15579 for biotransformation. The drug concentrations were measured before and after a 12-h incubation by liquid-chromatography-coupled mass spectrometry (LC–MS); settings: 2 µM
[9] = The drug is tested on Enterococcus faecalis strain: V583 for biotransformation. The drug concentrations were measured before and after a 12-h incubation by liquid-chromatography-coupled mass spectrometry (LC–MS); settings: 2 µM
[10] = The drug is tested on Edwardsiella tarda strain: ATCC23685 for biotransformation. The drug concentrations were measured before and after a 12-h incubation by liquid-chromatography-coupled mass spectrometry (LC–MS); settings: 2 µM
[11] = bifidobacterium adolescentis, 12 h, 2 µM
Description: The drug is tested on Bifidobacterium adolescentis strain: ATCC 15703 for biotransformation. The drug concentrations were measured before and after a 12-h incubation by liquid-chromatography-coupled mass spectrometry (LC–MS)

[12] = bacteroides fragilis, 12 h, 2 µM
Description: The drug is tested on Bacteroides fragilis strain: NCTC 9343 for biotransformation. The drug concentrations were measured before and after a 12-h incubation by liquid-chromatography-coupled mass spectrometry (LC–MS)

[13] = bacteroides fragilis, 12 h, 2 µM; remark: listed apart in the source
Description: The drug is tested on Bacteroides fragilis strain: 3397 (T10) for biotransformation. The drug concentrations were measured before and after a 12-h incubation by liquid-chromatography-coupled mass spectrometry (LC–MS)

[14] = bacteroides thetaiotaomicron, 12 h, 2 µM
Description: The drug is tested on Bacteroides thetaiotaomicron strain: VPI-5482 for biotransformation. The drug concentrations were measured before and after a 12-h incubation by liquid-chromatography-coupled mass spectrometry (LC–MS)

[15] = bacteroides thetaiotaomicron, 12 h, 2 µM; remark: listed apart in the source
Description: The drug is tested on Bacteroides thetaiotaomicron strain: 7330 for biotransformation. The drug concentrations were measured before and after a 12-h incubation by liquid-chromatography-coupled mass spectrometry (LC–MS)

[16] = segatella copri, 12 h, 2 µM
Description: The drug is tested on Prevotella copri strain: DSM18205 for biotransformation. The drug concentrations were measured before and after a 12-h incubation by liquid-chromatography-coupled mass spectrometry (LC–MS)

[17] = anaerostipes sp., 12 h, 2 µM
Description: The drug is tested on Anaerostipes sp. strain: fecal isolate for biotransformation. The drug concentrations were measured before and after a 12-h incubation by liquid-chromatography-coupled mass spectrometry (LC–MS)

[18] = limosilactobacillus reuteri cf48-3a, 12 h, 2 µM
Description: The drug is tested on Lactobacillus reuteri CF48-3A strain: BEI HM-102 for biotransformation. The drug concentrations were measured before and after a 12-h incubation by liquid-chromatography-coupled mass spectrometry (LC–MS)

[19] = roseburia intestinalis, 12 h, 2 µM
Description: The drug is tested on Roseburia intestinalis strain: L1-82 for biotransformation. The drug concentrations were measured before and after a 12-h incubation by liquid-chromatography-coupled mass spectrometry (LC–MS)

[20] = The drug is tested on Enterobacter cancerogenus strain: ATCC35316 for biotransformation. The drug concentrations were measured before and after a 12-h incubation by liquid-chromatography-coupled mass spectrometry (LC–MS); settings: 2 µM

| Compound | Bacterial Biotransformation [1] | Bacterial Biotransformation [2] | Bacterial Biotransformation [3] | Bacterial Biotransformation [4] | Bacterial Biotransformation [5] | Bacterial Biotransformation [6] | Bacterial Biotransformation [7] | Bacterial Biotransformation [8] | Bacterial Biotransformation [9] | Bacterial Biotransformation [10] | Bacterial Biotransformation [11] | Bacterial Biotransformation [12] | Bacterial Biotransformation [13] | Bacterial Biotransformation [14] | Bacterial Biotransformation [15] | Bacterial Biotransformation [16] | Bacterial Biotransformation [17] | Bacterial Biotransformation [18] | Bacterial Biotransformation [19] | Bacterial Biotransformation [20] |
| --- | --- | --- | --- | --- | --- | --- | --- | --- | --- | --- | --- | --- | --- | --- | --- | --- | --- | --- | --- | --- |
| CC(=O)OCC(=O)[C@@]1(OC(C)=O)[C@@H](C)C[C@H]2[C@@H]3C[C@H](F)C4=CC(=O)C=C[C@]4(C)[C@@]3(F)[C@@H](O)C[C@@]21C [DIFLORASONE DIACETATE] | Compound NOT metabolized | Compound metabolized | Compound metabolized | Compound metabolized | Compound metabolized | Compound metabolized | Compound NOT metabolized | Compound metabolized | Compound NOT metabolized | Compound NOT metabolized | Compound metabolized | Compound metabolized | Compound metabolized | Compound metabolized | Compound metabolized | Compound metabolized | Compound metabolized | Compound NOT metabolized | Compound metabolized | – |
| Cc1ccccc1C(OCCN(C)C)c1ccccc1.O=C(O)CC(O)(CC(=O)O)C(=O)O (stereo unspecified) [ORPHENADRINE CITRATE] | Compound NOT metabolized | Compound NOT metabolized | Compound NOT metabolized | Compound NOT metabolized | Compound NOT metabolized | Compound NOT metabolized | Compound NOT metabolized | Compound NOT metabolized | Compound NOT metabolized | Compound NOT metabolized | – | – | Compound NOT metabolized | Compound NOT metabolized | Compound NOT metabolized | Compound NOT metabolized | Compound NOT metabolized | Compound NOT metabolized | Compound NOT metabolized | – |
| Cc1ccccc1N1C(=O)c2cc(S(N)(=O)=O)c(Cl)cc2NC1C (stereo unspecified) [METOLAZONE] | Compound NOT metabolized | Compound NOT metabolized | – | Compound NOT metabolized | Compound NOT metabolized | – | – | – | Compound NOT metabolized | Compound NOT metabolized | Compound NOT metabolized | Compound NOT metabolized | – | Compound NOT metabolized | Compound NOT metabolized | Compound NOT metabolized | Compound NOT metabolized | Compound NOT metabolized | Compound NOT metabolized | Compound NOT metabolized |
| CC(C)N(CCC(C(N)=O)(c1ccccc1)c1ccccn1)C(C)C.O=P(O)(O)O (stereo unspecified) [DISOPYRAMIDE PHOSPHATE] | Compound NOT metabolized | Compound NOT metabolized | – | Compound NOT metabolized | Compound NOT metabolized | Compound NOT metabolized | Compound NOT metabolized | – | Compound NOT metabolized | Compound NOT metabolized | Compound NOT metabolized | – | Compound NOT metabolized | – | – | Compound NOT metabolized | Compound NOT metabolized | Compound NOT metabolized | Compound NOT metabolized | Compound NOT metabolized |
| CC(C)c1c(CN(C)C(C)Cc2ccccc2)n(C)n(-c2ccccc2)c1=O (stereo unspecified) [FAMPROFAZONE] | Compound NOT metabolized | Compound metabolized | Compound NOT metabolized | Compound metabolized | Compound metabolized | – | Compound NOT metabolized | Compound NOT metabolized | Compound NOT metabolized | Compound metabolized | Compound NOT metabolized | Compound metabolized | Compound metabolized | Compound metabolized | Compound metabolized | Compound metabolized | Compound metabolized | Compound metabolized | Compound NOT metabolized | – |
| COc1ccccc1OCC(O)COC(N)=O (stereo unspecified) [METHOCARBAMOL] | Compound NOT metabolized | Compound NOT metabolized | Compound NOT metabolized | Compound NOT metabolized | Compound NOT metabolized | Compound NOT metabolized | – | Compound NOT metabolized | Compound NOT metabolized | Compound NOT metabolized | Compound NOT metabolized | Compound NOT metabolized | Compound NOT metabolized | Compound NOT metabolized | Compound NOT metabolized | Compound NOT metabolized | Compound NOT metabolized | Compound NOT metabolized | Compound NOT metabolized | – |
| CC(C)(C(=O)O)c1ccc(C(O)CCCN2CCC(C(O)(c3ccccc3)c3ccccc3)CC2)cc1 (stereo unspecified) [FEXOFENADINE] | Compound NOT metabolized | Compound NOT metabolized | Compound NOT metabolized | Compound NOT metabolized | Compound NOT metabolized | Compound NOT metabolized | Compound NOT metabolized | Compound NOT metabolized | Compound NOT metabolized | Compound NOT metabolized | Compound NOT metabolized | Compound NOT metabolized | Compound NOT metabolized | Compound NOT metabolized | Compound NOT metabolized | Compound NOT metabolized | Compound NOT metabolized | Compound NOT metabolized | Compound NOT metabolized | – |
| CN(C)CCOC(C)(c1ccccc1)c1ccccn1.O=C(O)CCC(=O)O (stereo unspecified) [DOXYLAMINE SUCCINATE] | Compound NOT metabolized | Compound NOT metabolized | Compound NOT metabolized | Compound NOT metabolized | Compound NOT metabolized | Compound NOT metabolized | Compound NOT metabolized | Compound NOT metabolized | Compound NOT metabolized | Compound NOT metabolized | Compound NOT metabolized | Compound NOT metabolized | Compound NOT metabolized | Compound NOT metabolized | Compound NOT metabolized | Compound NOT metabolized | Compound NOT metabolized | Compound NOT metabolized | Compound NOT metabolized | – |
| CCN(CC)C(C)CN1c2ccccc2Sc2ccccc21 (stereo unspecified) [ETHOPROPAZINE] | Compound NOT metabolized | Compound NOT metabolized | Compound NOT metabolized | Compound NOT metabolized | Compound NOT metabolized | Compound NOT metabolized | Compound NOT metabolized | Compound NOT metabolized | Compound NOT metabolized | – | Compound NOT metabolized | Compound NOT metabolized | Compound NOT metabolized | Compound metabolized | Compound metabolized | – | Compound NOT metabolized | – | Compound NOT metabolized | – |
